Data on 14 compounds can be found in US10670605B2, “Cysteine reactive probes and uses thereof” (The Scripps Research Institute, priority 2015, dated 2020).

In one assay the target is T1, ACAT1 C413 (P24752) (Homo sapiens, UniProt P24752).
T1 sequence (P24752 34-427): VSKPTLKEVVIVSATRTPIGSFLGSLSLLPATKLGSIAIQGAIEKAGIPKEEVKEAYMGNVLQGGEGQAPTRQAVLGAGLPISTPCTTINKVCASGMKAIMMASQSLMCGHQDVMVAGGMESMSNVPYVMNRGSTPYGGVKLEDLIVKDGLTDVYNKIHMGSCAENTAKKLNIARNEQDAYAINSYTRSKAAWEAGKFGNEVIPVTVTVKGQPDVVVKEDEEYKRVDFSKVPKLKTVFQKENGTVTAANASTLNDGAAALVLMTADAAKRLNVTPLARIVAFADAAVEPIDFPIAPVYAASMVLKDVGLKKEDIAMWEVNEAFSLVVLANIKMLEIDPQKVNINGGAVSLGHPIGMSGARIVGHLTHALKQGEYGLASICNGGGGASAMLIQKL
The assay is described as follows: Competitive isoTOP-ABPP, cell lysates. In kind it is binding. The conditions noted are these: for isoTOP-ABPP reactivity ratio, P24752_C413 / isoTOP-ABPP reactivity profile ratio, P24752_C413: 500 μm.

Assay [1] concerns the target cysteines in MDA-MB-231 and Ramos cells (Homo sapiens, UniProt P12268). Kind of assay: Competitive isoTOP-ABPP in situ (fragment-treated cells). The conditions noted are these: 200 μM, insitu, 231. Format: cell-based.
A further assay concerns the target T2, ERCC3 C342 (P19447) (Homo sapiens, UniProt P19447).
T2 sequence (P19447 1-782): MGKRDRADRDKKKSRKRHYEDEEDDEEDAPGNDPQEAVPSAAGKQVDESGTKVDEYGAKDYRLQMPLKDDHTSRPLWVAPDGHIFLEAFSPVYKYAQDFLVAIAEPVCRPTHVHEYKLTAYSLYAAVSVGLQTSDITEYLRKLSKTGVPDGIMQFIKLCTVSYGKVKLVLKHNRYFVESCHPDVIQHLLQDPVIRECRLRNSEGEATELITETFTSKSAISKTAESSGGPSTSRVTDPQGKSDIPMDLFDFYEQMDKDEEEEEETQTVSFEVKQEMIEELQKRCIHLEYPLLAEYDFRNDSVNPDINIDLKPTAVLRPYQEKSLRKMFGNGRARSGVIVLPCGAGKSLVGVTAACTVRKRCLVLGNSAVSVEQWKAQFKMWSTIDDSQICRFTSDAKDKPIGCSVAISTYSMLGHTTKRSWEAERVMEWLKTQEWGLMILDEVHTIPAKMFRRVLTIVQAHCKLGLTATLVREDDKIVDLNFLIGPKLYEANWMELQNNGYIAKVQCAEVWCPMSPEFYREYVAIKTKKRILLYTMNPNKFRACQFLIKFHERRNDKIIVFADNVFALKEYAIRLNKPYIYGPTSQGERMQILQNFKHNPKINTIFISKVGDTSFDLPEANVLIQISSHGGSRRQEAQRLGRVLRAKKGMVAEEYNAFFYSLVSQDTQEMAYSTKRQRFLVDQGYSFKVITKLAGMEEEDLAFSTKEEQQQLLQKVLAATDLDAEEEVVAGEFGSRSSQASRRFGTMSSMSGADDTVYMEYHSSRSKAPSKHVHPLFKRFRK
Kind of assay: Competitive isoTOP-ABPP, cell lysates. The conditions noted are these: for isoTOP-ABPP reactivity profile ratio, P19447_C342: 500 μm, in-vitro_ramos_231. In kind it is binding.

Structures are written as SMILES.

Protocol for ERCC3 C342 (P19447): TEV digests were pressure loaded onto a 250 μm (inner diameter) fused silica capillary column packed with C18 resin (Aqua 5 μm, Phenomenex). The samples were analyzed by multidimensional liquid chromatography tandem mass spectrometry (MudPIT), using an LTQ-Velos Orbitrap mass spectrometer (Thermo Scientific) coupled to an Agilent 1200-series quaternary pump. […] One full MS (MS1) scan (400-1800 m/z) was followed by 30 MS2 scans (ITMS) of the nth most abundant ions.
The ratios of heavy/light for each unique peptide (DMSO/compound treated; isoTOP-ABPP ratios, R values) were quantified with in-house CIMAGE software, using default parameters (3 ms s per peak and signal to noise threshold 2.5). Site-specific engagement of electrophilic fragments was assessed by blockade of IA-alkyne probe labeling. […] Ratios for unique peptide entries were calculated for each experiment; overlapping peptides with the same modified cysteine (e.g. different charge states, MudPIT chromatographic steps or tryptic termini) were grouped together and the median ratio was reported as the final ratio (R). The peptide ratios reported by CIMAGE were further filtered to ensure the removal or correction of low quality ratios in each individual dataset. The quality filters applied were the following: removal of half tryptic peptides; for ratios with high standard deviations from the median (90% of the median or above) the lowest ratio was taken instead of the median; removal of peptides with R=20 and only a single ms2 event triggered during the elution of the parent ion; manual annotation of all the peptides with ratios of 20, removing any peptides with low-quality elution profiles that remained after the previous curation steps. Proteome reactivity values for individual fragments were computed as the percentage of the total quantified cysteine-containing peptides with R values≥4 (defined as liganded cysteines) for each replicate experiment and the final proteome reactivity value was calculated as the mean for all replicate experiments for each fragment from both MDA-MB-231 and Ramos cellular proteomes.
Biological replicates of the same compound and cell-line were averaged if the standard deviation was below 60% of the mean; otherwise the lowest value of the ratio set was taken. For peptides with multiple modified cysteines, the cysteine with the highest number of quantification events was kept and the remaining, redundant peptides were discarded. […] Although the majority (>75% of fragments) were profiled in at least two biological replicates, some data from single replicate MS experiments were included.

On to `O=C(/C=C/c1ccccc1)Nc1cc(C(F)(F)F)cc(C(F)(F)F)c1` [compound 26], for which the “isoTOP-ABPP ratio (reactivity profile), P24752_C413” value (“isoTOP-ABPP ratio … P24752_C413” for short) at ACAT1 C413 (P24752) (500 μm in-vitro ramos) is 0.9.

On to `COc1ccccc1OCCNC(=O)CCl` [compound 28], for which, in assay [1], the “isoTOP-ABPP ratio P12268_C140” value is on record as 0.6 and the “isoTOP-ABPP ratio P12268_C331” value came out at 0.8. Besides, the “isoTOP-ABPP ratio … P24752_C413” value at ACAT1 C413 (P24752) (500 μm in-vitro ramos) worked out at 1.4. On ACAT1 C413 (P24752) (500 μm in-vitro ramos_231), the “isoTOP-ABPP ratio … P24752_C413” value is 1.2.

With `CCN(CC)c1ccc(S(N)(=O)=O)cc1NC(=O)CCl` [compound 30], the “isoTOP-ABPP ratio … P24752_C413” value at ACAT1 C413 (P24752) (500 μm in-vitro ramos) is recorded as 1.1. The “isoTOP-ABPP reactivity ratio, P24752_C413” value (shortened to “isoTOP-ABPP reactivity ratio”) on ACAT1 C413 (P24752) (in-vitro_ramos) was found to be 1.9. Moreover, the “isoTOP-ABPP ratio (reactivity profile), P19447_C342” value on ERCC3 C342 (P19447) (500 μm in-vitro ramos) was 1.3.

In the case of `CC(C)(C)c1cc(NC(=O)CCl)on1` [compound 32], the “isoTOP-ABPP reactivity ratio” value at ACAT1 C413 (P24752) (in-vitro_ramos) came out at 4.1; at ACAT1 C413 (P24752) (in-vitro_ramos_231) it was 6.8.

Turning to `O=C(CCl)N(Cc1ccc(F)cc1)C12CC3CC(CC(C3)C1)C2` [compound 34], the “isoTOP-ABPP reactivity ratio” value on ACAT1 C413 (P24752) (in-vitro_ramos) worked out at 1.3; at ACAT1 C413 (P24752) (in-vitro_ramos_231), 0.9.

With `O=C(CCl)Nc1ccccc1C1CCCCCC1` [compound 35], the “isoTOP-ABPP reactivity ratio” value on ACAT1 C413 (P24752) (in-vitro_ramos) amounted to 1.3.

With `C=CC(=O)N1CCC(c2noc3ccc(F)cc23)CC1` [compound 37], the “isoTOP-ABPP reactivity ratio” value at ACAT1 C413 (P24752) (in-vitro_ramos) is 0.9.

Regarding `C=CC(=O)Nc1cc(C)c(Br)cc1C` [compound 40], on ACAT1 C413 (P24752) (in-vitro_ramos_231), the “isoTOP-ABPP reactivity ratio” value is on record as 0.9.

For `N#CC(=Cc1ccc(-c2ccccc2Cl)o1)C(N)=O` [compound 42], the “isoTOP-ABPP reactivity profile ratio, P24752_C413” value on ACAT1 C413 (P24752) (in-vitro_ramos) stood at 0.7.

Regarding `COc1cc(NC(=O)CCl)cc(OC)c1` [compound 43], the “isoTOP-ABPP reactivity profile ratio, P24752_C413” value on ACAT1 C413 (P24752) (in-vitro_ramos_231) was 15.9.

Consider `C=CC(=O)N(c1ccccc1)C1CCCCC1` [compound 46], for which the “isoTOP-ABPP reactivity profile ratio, P24752_C413” value at ACAT1 C413 (P24752) (in-vitro_ramos_231) is reported as 1.1. Besides, the “isoTOP-ABPP reactivity profile ratio, P19447_C342” value on ERCC3 C342 (P19447) is listed as 1.0.

`O=C(CCl)N1CCc2cc(Br)ccc21` [compound 50]: on ACAT1 C413 (P24752) (in-vitro_ramos_231), the “isoTOP-ABPP reactivity profile ratio, P24752_C413” value is 9.2.

As for `O=C(CCl)Nc1ccc(-c2ccccc2)cc1` [compound 52], the “isoTOP-ABPP reactivity profile ratio, P24752_C413” value came out at 1.5 at ACAT1 C413 (P24752) (in-vitro_ramos) and 1.9 at ACAT1 C413 (P24752) (in-vitro_ramos_231). Besides, the “isoTOP-ABPP reactivity profile ratio, P19447_C342” value at ERCC3 C342 (P19447) was determined as 1.0.

Take `C=CC(=O)N1CCC(Cc2ccccc2)CC1` [compound 53]: the “isoTOP-ABPP reactivity profile ratio, P24752_C413” value on ACAT1 C413 (P24752) (in-vitro_ramos_231) is reported as 1.0.
